Measured values reported in patent US20060057636A1 (priority 2002, published 2006).

Legend:
Balb/C mice = conditions: in vivo, sc
recombinant bovine PrP = conditions: in vivo
NMRI mice = conditions: mouse, in vivo

Sequence	mean end-point titre, mouse no. 1 (Balb/C mice)	mean end-point titre, mouse no. 2 (Balb/C mice)	mean end-point titre, mouse no. 3 (Balb/C mice)	mean end-point titre, mouse no. 4 (Balb/C mice)	production of high-titered, PrP-reactive antibodies (recombinant bovine PrP)	titres in NMRI mice compared with Balb/C (NMRI mice)
CGGLGGYMLGSAMSRPLIH [PrP peptide 3]	13.5000	13.500	13.500	40.500		
CGSDYEDRY [PrP peptide 5]	121.500	40.500	40.500	40.500	all groups except the peptide 5 group	
CGQWNKPSKPKTN [PrP peptide 2]	121.500	40.500	13.500	13.500		
CGGRESQAYYQRGAS [PrP peptide 4]	4.500	13.500	13.500	40.500		the same or even higher titres
CYYRPVDQYS [PrP peptide 6]	13.500	500	13.500	1.500		the same or even higher titres
CGQGGTHGQWNKP [PrP peptide 1]	40.500	40.500	40.500	40.500		the same or even higher titres
CTQYQRESQAYYQRG [PrP peptide 7]	121.500	13.4500	40.500	40.500		
